# Test results published in patent publication US11458122B2, “Methods for treating diseases and nerve injuries” (CHILDREN'S HOSPITAL MEDICAL CENTER, priority 2017, dated 2022).
# How the values were obtained:
# [1] = tested on: Egr2 expression in primary rat SCs; experiment: Small molecule epigenetic compound screening: Egr2 expression by qRT-PCR; assay type: cell-based; conditions: 8 hours, read-out: Egr2 expression over vehicle treatment
# Description: Each compound in the Epigenetics compound library (Cayman, 11076) was diluted to a final concentration of 5 μM in the medium containing DMEM/0.5% FBS with L-glutamine and penicillin/streptomycin. SCs were treated with diluted compounds for 8 hours. Treated SCs were washed with PBS and then treated with SingleShot Cell Lysis Kite (172-5080, BioRad) following the manufacturer's instructions. The cell lysates from each well were collected for qRT-PCR by using iTaq Universal SYBR Green One-Step Kit (BioRad 172-5150,) following the instructions. Each compound was tested in triplicate.
# EGR2 is a pro-myelinating regulator that serves an indicator of myelinogenic potential. We developed an unbiased gene expression-based assay using real-time quantitative PCR indexing of Egr2 to identify inhibitors of epigenetic enzymes that […] SC maturation. Cultured rat SCs were treated a library of epigenetics compounds targeting enzymes including methyltransferases, demethylases, histone acetyltransferases, histone deacetylases (HDACs), and acetylated histone regulators.
# [2] = cited from earlier work
# sciatic nerves = experiment: HDAC3 inhibitors in neonatal mice: developmental myelination of sciatic nerves
# [3] = PDA106 100 mg/kg, RGFP966 10 mg/kg
# [4] = tested on: SCs isolated from neonatal rat sciatic nerve; experiment: SC cultures treated with HDAC inhibitors: morphology, MPZ/phalloidin immunostaining, qRT-PCR; conditions: 24 hours
# optic nerve [5] = experiment: Optic tract transection: axon regeneration by CTB tracing; assay type: in vivo, mice; conditions: 10 mg/kg, 28 days after injury
# Description: Axon regeneration was assayed by examining axonal fibers labeled with the anterograde tracer, cholera toxin β (CTB, shown in white color), in the optic nerve sections across the lesion site.
# injured sciatic nerves [6] = experiment: Sciatic nerve transection injury: remyelination by immunostaining and EM; conditions: for regeneration tracks within the tissue bridge: Dpi 6; for percentages of MBP myelinating axons entering the bridge: Dpi 7 vs vehicle; for myelin sheath thickness in the regenerating bridge / percentage of Ki67+ cells / proportion of EGR2+ maturing SCs in the tissue bridge: Dpi 14; for myelinated axons: Dpi 14 vs vehicle; for myelin thickness of the intact sciatic nerves: uninjured nerves of adult mice, Dpi 35
# injured sciatic nerves [7] = experiment: Compound muscle action potential recording after sciatic nerve transection; assay type: in vivo, mice; conditions: for CMAP amplitude / conduction velocity: Dpi 18, two weeks treatment
# Description: CMAPs were amplified and obtained using a Micro 1401 data acquisition unit and analyzed using Spike2 software (<<http://ced.co.uk/products/spkovin>>). Three successive electrical stimulations of the sciatic nerve at 2 mA (0.25-0.5 Hz, 0.1 ms duration) were initiated immediately proximal to the tibial, sural and common peroneal branches via a stimulus isolator connected to the Micro 1401. Conduction velocity was calculated after determining the latency of CMAP onset relative to the stimulus artifact induced by electrical stimulation of the sciatic nerve and the distance between recording and stimulating electrodes measured directly on the nerve. Peak CMAP amplitude and CMAP duration were calculated from each stimulation paradigm. The average of the stimulations of the sciatic nerve for each paradigm were obtained and then averaged across animals.
# At Dpi 18, CMAP activity was barely detectable after electrical stimulation of vehicle-treated injured nerves.
# optic nerve [8] = experiment: Optic nerve crush injury: CD68 inflammatory microglia/macrophage cells; assay type: in vivo, mice; conditions: 10 mg/kg i.p., 10 dpi vs DMSO
# From the text: Crush injury to the optic nerves of mice (wild type mice) was accomplished with the aid of a pair of cross-action forceps, applying a crush injury to the optic nerve at about 2 mm from the eyeball for about 3 seconds in wildtype mice.
# [9] = tested on: HDAC3 expression in primary rat SCs; experiment: HDAC3 expression in primary SCs treated with NRG1 and gefitinib; assay type: cell-based; conditions: combined with NRG1
# Description: (§1) For western blotting, the perineurium and epineurium were removed from sciatic nerves prior to snap-freezing and storage at −80° C. Sciatic nerves and rat SCs were lysed in RIPA buffer, containing protease and phosphatase inhibitors. […] GAPDH (Millipore MAB374) was used as an input control. […] Corresponding secondary antibodies conjugated to HRP were from Jackson ImmunoResearch Laboratories (catalog numbers 111-035-144 and 111-035-003).
# PCR primer sequences are available upon request.
# (§2) Treatment of primary rat SCs with the recombinant NRG1 type III for 1 hour led to upregulation of HDAC3 expression (FIG. 5F). This effect appeared to be occluded by a NRG1 signaling inhibitor gefitinib (FIG. 5G), which blocks the signaling of ERBB2/3 receptors activated by NRG1 engagement. Conversely, HDAC3 overexpression inhibited phosphorylation of AKT and ERK induced by NRG1 in SCs (FIG. 5E).
# rat SC cultures = experiment: Western blotting of PI3K/AKT/ERK signalling and Ac-PTEN in SC cultures; assay type: cell-based
# Description: as §1
# The hypermyelinating phenotype observed in Hdac3-cKO mice resembles that of mice overexpressing NRG1 type III. […] Indeed, we detected an increase in the levels of phosphorylated AKT, PI3K, and ERK in Hdac3-cKO nerves at P13 compared to controls (FIG. 5B).
# as §2
# [10] = Experimental autoimmune encephalomyelitis (EAE) induced by MOG35-55; assay type: in vivo, mice
# Description: 8-week-old female C57BL/6 (Charles River lab) mice received injections of 200 μg of myelin oligodendrocyte glycoprotein (MOG) 35-55 peptide emulsified in complete Freund's adjuvant (BD Biosciences), supplemented with 600 μg of Mycobacterium tuberculosis (strain H37Ra; BD Biosciences). 24 and 72 hours after immunization, mice were given two intraperitoneal injections of 400 ng of pertussis toxins (List Biological Laboratories, Cat # NC9675592). EAE onset was monitored daily and scored with Clinical scores (0=healthy; 1=flaccid tail; 2=ataxia and/or paresis of hindlimbs; 3=paralysis of hindlimbs and/or paresis of forelimbs; 4=tetraparalysis; 5=moribund or death).
# In the experimental autoimmune encephalomyelitis (EAE) demyelinating mouse model induced by myelin peptide MOG35-55, the most commonly used animal model of multiple sclerosis (BITTNER et al., “Myelin oligodendrocyte glycoprotein (MOG35-55) induced experimental autoimmune encephalomyelitis (EAE) in C57BL/6 mice” J Vis Exp. (2014) Vol. 86, Article 51275 (doi: 10.3791/51275)), HDAC3 inhibitor administration improved motor function reflected in clinical scores as well as in remyelination.
structure (smiles),measurement,setting,value
"CCOC(=O)CCNc1cc(N2CCc3ccccc3CC2)nc(-c2ccccn2)n1 [GSK-J4, Ethyl 3-((6-(4,5-dihydro-1H-benzo[d]azepin-3(2H)-yl)-2-(pyridin-2-yl)pyrimidin-4-yl)amino)propanoate]",fold induction at 5 µM,[1],≥ 5
"O=C(/C=C/c1ccc(CN(CCO)CCc2c[nH]c3ccccc23)cc1)NO [LAQ824, (2E)-N-hydroxy-3-[4-[[(2-hydroxyethyl)[2-(1H-indol-3-yl)ethyl]amino]methyl]phenyl]-2-propenamide]",fold induction at 5 µM,[1],≥ 5
"O=C(CCCCCCC(=O)Nc1ccccc1)NO [SAHA, N-hydroxy-N'-phenyl-octanediamide]",fold induction at 5 µM,[1],≥ 5
"Nc1cc(F)ccc1NC(=O)/C=C/c1cnn(C/C=C/c2ccccc2)c1 [RGFP966, (2E)-N-(2-Amino-4-fluorophenyl)-3-[(2E)-1-(3-phenyl-2-propen-1-yl)-1H-pyrazol-4-yl]-2-propenamide]",half-life,[2],~1 h
same,percentage of myelinated axons,sciatic nerves; P7 and P15,increase
same,number of EGR2-expressing mature SCs in sciatic nerves,"sciatic nerves; neonatal mice, daily from P1, P7",elevation
same,"expression of myelination-associated genes Prx, Mbp, Mpz, Egr2",sciatic nerves; sciatic nerves at P7 vs vehicle,significantly elevated
same,tolerability / side effects in mice,[3],without adverse effects on mice
same,SC process extension / morphology,[4],expansion of cellular processes
same,axon regeneration across the lesion site,optic nerve [5],long-distance axon regeneration
same,regeneration tracks within the tissue bridge,injured sciatic nerves [6],opaque regeneration tracks were observed
same,percentages of MBP myelinating axons entering the bridge,injured sciatic nerves [6],significantly higher
same,myelin sheath thickness in the regenerating bridge,injured sciatic nerves [6],thicker myelin sheaths
same,percentage of Ki67+ cells,injured sciatic nerves [6],decreased
same,proportion of EGR2+ maturing SCs in the tissue bridge,injured sciatic nerves [6],increased
same,myelinated axons,injured sciatic nerves [6],increase
same,myelin thickness of the intact sciatic nerves,injured sciatic nerves [6],does not affect
same,CMAP amplitude,injured sciatic nerves [7],increase
same,conduction velocity,injured sciatic nerves [7],increase
same,motor nerve function (CMAP recordings),injured sciatic nerves [7]; Dpi 35,improved motor nerve function
same,"functional recovery (conduction velocity, CMAP amplitude and duration)","injured sciatic nerves [7]; aging mice 10-12 months, Dpi 35",enhances functional recovery
same,number of CD68 inflammatory microglia/macrophage cells at the injury site,optic nerve [8],decreased
COc1cc2ncnc(Nc3ccc(F)c(Cl)c3)c2cc1OCCCN1CCOCC1 [gefitinib],NRG1-induced upregulation of HDAC3 expression,[9],occluded
"Cc1ccc(NC(=O)CCCCCC(=O)Nc2ccccc2N)cc1 [PDA106, N1-(2-Aminophenyl)-N7-(4-methylphenyl)-heptanediamide]",half-life,[2],~8 h
same,level of acetylated PTEN,rat SC cultures; SC cultures,increased
same,"p-AKT, p-PI3K and p-ERK levels",rat SC cultures; purified rat SCs,elevation
same,p-ERK levels,"rat SC cultures; rat SCs, combined treatment with NRG1",further enhanced
same,p-ERK and p-AKT levels,"rat SC cultures; rat SCs, single treatment",increased
same,SC process extension / morphology,[4],expansion of cellular processes
same,clinical score (motor function),[10]; 100 mg/kg i.p. daily for 10 days from PID 15,reduces clinical score
same,remyelination in the spinal cord / oligodendrocyte myelination in the CNS,[10]; EM of lesion areas at PID 25,promotes oligodendrocyte myelination
same,regeneration tracks within the tissue bridge,injured sciatic nerves [6],opaque regeneration tracks were observed
same,percentages of MBP myelinating axons entering the bridge,injured sciatic nerves [6],significantly higher
same,myelin sheath thickness in the regenerating bridge,injured sciatic nerves [6],thicker myelin sheaths
same,percentage of Ki67+ cells,injured sciatic nerves [6],decreased
same,proportion of EGR2+ maturing SCs in the tissue bridge,injured sciatic nerves [6],increased
same,myelinated axons,injured sciatic nerves [6],increase
same,myelin thickness of the intact sciatic nerves,injured sciatic nerves [6],does not affect
same,CMAP amplitude,injured sciatic nerves [7],increase
same,conduction velocity,injured sciatic nerves [7],increase
"COc1cc2c(NC3CCN(CC4CCCCC4)CC3)nc(N3CCCN(C(C)C)CC3)nc2cc1OCCCN1CCCCC1 [UNC0631, N-[1-(cyclohexylmethyl)-4-piperidinyl]-2-[hexahydro-4-(1-methylethyl)-1H-1,4-diazepin-1-yl]-6-methoxy-7-[3-(1-piperidinyl)propoxy] 4-quinazolinamine]",fold induction at 5 µM,[1],≥ 5
"Clc1ccc(N/N=C(\c2ccccc2)c2ccccn2)nc1 [JIB-04, (E)-N-(5-Chloro-pyridin-2-yl)-N'-(phenyl-pyridin-2-yl-methylene)-hydrazine]",fold induction at 5 µM,[1],≥ 5
"COc1cc2c(NC3CCN(C4CCCCC4)CC3)nc(N3CCCN(C(C)C)CC3)nc2cc1OCCCN1CCCCC1 [UNC0646, N-(1-Cyclohexyl-4-piperidinyl)-2-[hexahydro-4-(1-methylethyl)-1H-1,4-diazepin-1-yl]-6-methoxy-7[3-(1-piperidinyl)propoxy]-4-quinazolinamine]",fold induction at 5 µM,[1],≥ 5
"CCC(=O)CCCCC[C@@H]1NC(=O)[C@H]2CCCCN2C(=O)[C@H]([C@@H](C)CC)NC(=O)[C@H](Cc2cn(OC)c3ccccc23)NC1=O [apicidin, Cyclo[(2S)-2-amino-8-oxodecanoyl-1-methoxy-L-tryptophyl-L-isoleucyl-(2R)-2-piperidinexcarbonyl]]",fold induction at 5 µM,[1],≥ 5
COc1ccc(Cn2ccc3ccc(C(=O)NO)cc32)cc1 [PCI34051],SC process extension / morphology,[4],minimal effects
"CN(C)c1ccc(C(=O)NCCCCCC(=O)NO)cc1 [CAY10398, 4-(dimethylamino)-N-[6-(hydroxyamino)-6-oxohexyl]-benzamide]",fold induction at 5 µM,[1],≥ 5
